By pIC50 is commonly meant the IC50 on a negative log10 scale, so that one unit is a factor of ten. Read a high pIC50 as a small IC50.

Structures are written as SMILES. pIC50: −log10 of the molar value. Counter-ions that a name gives are not always drawn. Where only a bound is given, the exact number is not on record here.

We go through 30 compounds from patent publication US11407729B2, “Quinoline and quinazoline compounds and methods of use thereof” (Stingray Therapeutics, Inc., priority 2019, dated 2022).

This experiment addresses T1, ENPP1 protein (Homo sapiens, UniProt P22413).
T1 sequence (P22413 1-925): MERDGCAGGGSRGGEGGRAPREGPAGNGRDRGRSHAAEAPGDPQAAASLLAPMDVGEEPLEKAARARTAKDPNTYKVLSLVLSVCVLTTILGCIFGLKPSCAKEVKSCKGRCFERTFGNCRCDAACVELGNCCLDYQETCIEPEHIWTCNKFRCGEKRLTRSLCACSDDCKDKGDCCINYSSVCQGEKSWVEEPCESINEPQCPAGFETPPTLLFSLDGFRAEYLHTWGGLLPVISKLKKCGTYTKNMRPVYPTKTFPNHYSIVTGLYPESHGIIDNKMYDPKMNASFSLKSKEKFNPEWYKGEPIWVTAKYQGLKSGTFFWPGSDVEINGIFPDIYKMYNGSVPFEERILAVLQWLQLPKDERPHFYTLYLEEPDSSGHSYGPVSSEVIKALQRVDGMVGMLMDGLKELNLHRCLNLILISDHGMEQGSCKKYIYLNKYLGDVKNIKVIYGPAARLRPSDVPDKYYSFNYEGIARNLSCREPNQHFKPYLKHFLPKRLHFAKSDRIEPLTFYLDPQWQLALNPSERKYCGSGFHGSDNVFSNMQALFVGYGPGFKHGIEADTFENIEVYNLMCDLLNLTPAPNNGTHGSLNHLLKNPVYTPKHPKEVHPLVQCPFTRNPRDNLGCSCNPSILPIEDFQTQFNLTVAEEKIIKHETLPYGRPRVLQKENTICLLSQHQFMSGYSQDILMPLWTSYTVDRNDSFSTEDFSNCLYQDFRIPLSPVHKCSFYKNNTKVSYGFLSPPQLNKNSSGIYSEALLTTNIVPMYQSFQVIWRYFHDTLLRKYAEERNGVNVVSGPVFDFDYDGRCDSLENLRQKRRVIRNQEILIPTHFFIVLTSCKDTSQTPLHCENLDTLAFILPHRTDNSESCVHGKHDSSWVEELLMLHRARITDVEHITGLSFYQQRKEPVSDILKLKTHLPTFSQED
Briefly: ENPP1 Inhibition Assay. Details: purchased R&D 6136-EN-010. Format: biochemical. The settings on record: substrate Thymidine 5′-monophosphate p-nitrophenol ester; 37° C. for 45 minutes; absorbance at 405 nm. Here is the method: 1. ENPP1 Inhibition Assay
An eight point serial dilution of drugs was prepared in 10× in assay buffer with the final assay concentrations starting at 10 μM, 3 μM, 1 μM, 0.3 μM . . . 0 μM. A dilution of DMSO was included as a control. The assay plate was set up as follows with each well in duplicate: 81 μL assay buffer+10 μL ENPP1 inhibitor or DMSO+5 μL Substrate+4 μL Enzyme. Both the enzyme and substrate were added to opposite sides of the well to ensure that there was no interaction until all wells had both components. The plate was then centrifuged gently for 10 seconds, followed by an incubation at 37° C. for 45 minutes.
IC50 values are determined using GraphPad Prism 5 software. The data were entered as an X-Y plot into the software as percent inhibition for each concentration of the drug. The concentration values of the drug were log transformed and the nonlinear regression was carried out using the “sigmoidal dose-response (variable slope)” option within the GraphPad software to model the data and calculate IC50 values.
The compound `COc1cc2ncnc(N3CCN(C4(CNS(N)(=O)=O)CC4)CC3)c2cc1OC` [Compound I-32, N-((1-(4-(6,7-dimethoxyquinazolin-4-yl)piperazin-1-yl)cyclopropyl)methyl)sulfuricdiamide] gave a pIC50 of 7.25.

Turning to `COc1cc2ncnc(N3CCC(CCNS(N)(=O)=O)CC3)c2cc1OP(=O)(O)O` [Compound I-03, sodium 7-methoxy-4-(4-(2-(sulfamoylamino)ethyl)piperidin-1-yl)quinazolin-6-yl phosphate], the pIC50 is 5.54. Then `COc1cc2nccc(N3CCC(C(C)CN(C4CC4)S(N)(=O)=O)CC3)c2cc1OC` (stereo not drawn) [Compound I-16, N-cyclopropyl-N-(2-(1-(6,7-dimethoxyquinolin-4-yl)piperidin-4-yl)propyl)aminosulfonamide formate salt], with 6.39; and `COCOc1cc2c(N3CCN(C4(CNS(N)(=O)=O)CC4)CC3)ncnc2cc1OC` [Compound I-33, N-((1-(4-(7-methoxy-6-(methoxymethoxy)quinazolin-4-yl)piperazin-1-yl)cyclopropyl)methyl)sulfuricdiamide], with 6.80. Compound `COc1cc2ncnc(N3CCC(NS(N)(=O)=O)CC3)c2cc1OC` [Compound I-29, N—(N-(1-(6,7-dimethoxyquinazolin-4-yl)piperidin-4-yl)sulfuricdiamide formate salt] gave a pIC50 of 6.38. As to `COc1cc2nccc(N3CCN(CCNS(N)(=O)=O)[C@H](C)C3)c2cc1OC` [Compound I-21, (R)—N-(2-(4-(6,7-dimethoxyquinolin-4-yl)-2-methylpiperazin-1-yl)ethyl)aminosulfonamide formate salt], the negative-log IC50 (pIC50) was 6.46. Then `COc1cc2nccc(N3CCN(C(C)CNS(N)(=O)=O)CC3)c2cc1OC` (stereo not drawn) [Compound I-20, N-(2-(4-(6,7-dimethoxyquinolin-4-yl)piperazin-1-yl)propyl)aminosulfonamide formate salt], with 7.86; and `COc1cc2nccc(N3CCC(C(C)CNS(N)(=O)=O)CC3)c2cc1O` (stereo not drawn) [Compound I-09, N—(N-(2-(1-(6-hydroxy-7-methoxyquinolin-4-yl)piperidin-4-yl)propyl)sulfuricdiamide formate salt], with 5.73; and `COc1cc2ncnc(N3CCC(N(C4CC4)S(N)(=O)=O)CC3)c2cc1OC` [Compound I-30], with 5.25. Then `COc1cc2nccc(N3CCC(C(C)(C)CNS(N)(=O)=O)CC3)c2cc1OC` [Compound I-14, N-(2-(1-(6,7-dimethoxyquinolin-4-yl)piperidin-4-yl)-2-methylpropyl)sulfuricdiamide hydro chloride salt], with 7.45; and `CCC(CNS(N)(=O)=O)C1CCN(c2ncnc3cc(OC)c(OC)cc23)CC1` (stereo not drawn) [Compound I-25, N—(N-(2-(1-(6,7-dimethoxyquinazolin-4-yl)piperidin-4-yl)butyl)sulfuricdiamide formate salt], with 8.30; and `COc1cc2nccc(N3CCN(C4(CNS(N)(=O)=O)CC4)CC3)c2cc1OC` [Compound I-31, N-((1-(4-(6,7-dimethoxyquinolin-4-yl)piperazin-1-yl)cyclopropyl)methyl)sulfuricdiamide], with 7.63. As to `COc1cc2ncnc(N3CCC(C(C)(C)CNS(N)(=O)=O)CC3)c2cc1OC` [Compound I-26, N-(2-(1-(6,7-dimethoxyquinazolin-4-yl)piperidin-4-yl)-2-methylpropyl)sulfuricdiamide formate salt], the negative logarithm of the IC50 (pIC50) is 8.62. This pIC50 lies 0.99 log units higher than the previous one.

In the case of `COc1cc2nccc(N3CCC(C(C)CNS(N)(=O)=O)CC3)c2cc1OCCO` (stereo not drawn) [Compound I-11, N-(2-(1-(6-(2-hydroxyethoxy)-7-methoxyquinolin-4-yl)piperidin-4-yl)propyl)aminosulfonamide formate salt], the pIC50 is 5.35. Then `COc1cc2nccc(N3CCC(C4(CNS(N)(=O)=O)CC4)CC3)c2cc1OCF` [Compound I-37, N-((1-(1-(6-(fluoromethoxy)-7-methoxyquinolin-4-yl)piperidin-4-yl)cyclopropyl)methyl)sulfuricdiamide], with 8.96; and `COc1ccc2nccc(N3CCC(C(C)CNS(N)(=O)=O)CC3)c2c1` (stereo not drawn) [Compound I-08, N-(2-(1-(6-methoxyquinolin-4-yl)piperidin-4-yl)propyl)aminosulfonamide], with 6.65; and `COCOc1cc2c(N3CCC(C(C)CNS(N)(=O)=O)CC3)ncnc2cc1OC` (stereo not drawn) [Compound I-28], with 7.58. `COc1cc2ncnc(N3CCC(C4(CNS(N)(=O)=O)CC4)CC3)c2cc1OC` [Compound I-27, N—(N-((1-(1-(6,7-dimethoxyquinazolin-4-yl)piperidin-4-yl)cyclopropyl)methyl)sulfuricdiamide formate salt] had a pIC50 of 7.94.

Compound `COc1cc2nccc(N3CCC(NS(N)(=O)=O)CC3)c2cc1OC` [Compound I-23, N—(N-(1-(6,7-dimethoxyquinolin-4-yl)piperidin-4-yl)sulfuricdiamide formate salt] had a negative-log IC50 (pIC50) of 6.05. Then `COc1cc2nccc(N3CCC(C4CCCN(S(N)(=O)=O)C4)CC3)c2cc1OC` (stereo not drawn) [Compound I-17, 6,7-dimethoxy-4-(1-(aminosulfonyl)-[3,4′-bipiperidin]-1′-yl)quinoline formate salt], with 7.12; and `CNS(=O)(=O)NCC(C)C1CCN(c2ccnc3cc(OC)c(OC)cc23)CC1` (stereo not drawn) [Compound I-15, N-(2-(1-(6,7-dimethoxyquinolin-4-yl)piperidin-4-yl)propyl)Methyaminosulfonamide], with 5.46; and `COCCOc1cc2c(N3CCC(C(C)CNS(N)(=O)=O)CC3)ccnc2cc1OC` (stereo not drawn) [Compound I-10, N-(2-(1-(7-methoxy-6-(2-methoxyethoxy)quinolin-4-yl)piperidin-4-yl)propyl)aninosulfonamide formate salt], with 6.81. Turning to `COCOc1cc2c(N3CCC(C4(CNS(N)(=O)=O)CC4)CC3)ncnc2cc1OC` [Compound I-35, N-((1-(1-(7-methoxy-6-(methoxymethoxy)quinazolin-4-yl)piperidin-4-yl)cyclopropyl)methyl)sulfuricdiamide], the pIC50 is 7.31.

`COc1cc2nccc(N3CCC(N(C4CC4)S(N)(=O)=O)CC3)c2cc1OC` [Compound I-24, N—(N-cyclopropyl-N-(1-(6,7-dimethoxyquinolin-4-yl)piperidin-4-yl)sulfuricdiamide formate salt] showed a pIC50 of 6.02.

Compound `COc1ccc2c(N3CCC(C(C)CNS(N)(=O)=O)CC3)ccnc2c1` (stereo not drawn) [Compound I-07, N-(2-(1-(7-methoxyquinolin-4-yl)piperidin-4-yl)propyl)aminosulfonamide] gave a pIC50 of 6.60. Then `COc1cc2nccc(N3CCC(C(=O)NC4(C#N)CC4)CC3)c2cc1OC` [Compound I-18, N-(1-cyanocyclopropyl)-1-(6,7-dimethoxyquinolin-4-yl)piperidine-4-carboxamide], with < 5.00; and `COc1cc2nccc(N3CCC(C4(CNS(N)(=O)=O)CC4)CC3)c2cc1OC` [Compound I-22], with 8.04. `COc1cc2nccc(N3CCC(C(C)CNS(C)(=O)=O)CC3)c2cc1OC` (stereo not drawn) [Compound I-19, N-(2-(1-(6,7-dimethoxyquinolin-4-yl)piperidin-4-yl)propyl)methanesulfonamide] had a pIC50 of 5.42. Then `COc1cc2ncnc(N3CCN(C4(CNS(N)(=O)=O)CC4)CC3)c2cc1OCF` [Compound I-34, N-((1-(4-(6-(fluoromethoxy)-7-methoxyquinazolin-4-yl)piperazin-1-yl)cyclopropyl)methyl)sulfuricdiamide], with 6.88. Then `COCOc1cc2c(N3CCC(C(C)(C)CNS(N)(=O)=O)CC3)ncnc2cc1OC` [Compound I-36, N-(2-(1-(7-methoxy-6-(methoxymethoxy)quinazolin-4-yl)piperidin-4-yl)-2-methylpropyl)sulfuricdiamide], with 7.28.
